Measured values as given in patent US20030044413A1, “Methods of limiting apoptosis of cells” (Regents of the University of Minnesota, priority 1998, published 2003).
Entries after “also recorded” stand apart in the source; their conditions may differ.

Experiments:
rat primary hepatocytes = experiment: Apoptosis in isolated rat hepatocytes with DCA, TGF-β1 or okadaic acid ± UDCA (Example III); format: cell-based; conditions: for percentage of apoptotic cells: 50 μM deoxycholic acid 4 hours, 1 nM TGF-β1 24 hours, 25 nM okadaic acid 16 hours
Excerpt: Cell culture and preparation of rat primary hepatocytes. Rat primary hepatocytes were isolated from male Sprague-Dawley rats (200-250 g) by collagenase perfusion as described by Mariasb, et al., J. Biol. Chem. 261, 9583-9586 (1986). Briefly, rats were anesthesized with phenobarbitol and the livers were perfused with 0.05% collagenase. Hepatocyte suspensions were obtained by passing digested livers through 0.125 mm gauze and washing cells in modified Eagle's medium (MEM) (Life Technologies, Inc., Grand Island, N.Y.). Cell viability was determined by trypan blue exclusion and was typically 85 to 90%. After isolation, hepatocytes were resuspended in William's E medium (Life Technologies, Inc.) supplemented with 26 mM sodium bicarbonate, 23 mM HEPES, 0.01 U/mL insulin, 2 mM L-glutamine, 10 nM dexamethasone, 5.5 mM glucose, 100 U/ml penicillin and 100 U/ml streptomycin and then plated on 35×10 mm […] tissue culture dishes (Becton Dickinson Labware, Lincoln Park, N.J.) at 1.0×10^6 cells/ml. The cells were maintained at 37° C. in a humidified atmosphere of 5% CO2 for 3 h. Plates were then washed with medium to remove dead cells, and medium containing 10% heat-inactivated FBS (55° C. for 30 min) was added (Atlanta Biologicals, Inc., Norcross, Ga.).
Incubation of cells with inducers of apoptosis. Freshly isolated rat hepatocytes were cultured for 3 h as described above and then incubated with William's E medium supplemented with either 50 μM DCA for 4 h, 1 nM TGF-β1 for 24 h, or 25 nM okadaic acid for 16 h, in the presence or absence of 100 μM UDCA, or no addition (control). The medium was gently removed at the indicated time points and scored for nonviable cells by trypan blue dye exclusion. The attached cells were fixed for morphologic assessment of apoptotic changes. Morphological evaluation of apoptosis. The medium was gently removed at the indicated time points to prevent detachment of cells. Cells were fixed with 4% formaldehyde in PBS, pH 7.4, for 10 min at room temperature, incubated with Hoechst dye 33258 (Sigma Chemical Co., St. Louis, Mo.) at […] in PBS for 5 min, washed with PBS and mounted with PBS:glycerol (3:1, v/v). Fluorescence was visualized with a Zeiss standard fluorescence microscope (Carl Zeiss, Inc., Thornwood, N.Y.). Photographs were taken with Kodak Ektar-1000 film (Eastman Kodak Co.). Stained nuclei were scored by blind analysis and categorized according to the condensation and staining characteristics of chromatin. Normal nuclei were identified as noncondensed chromatin dispersed over the entire nucleus. […] Three fields per dish of approximately 500 nuclei were counted; mean values are expressed as the percent of apoptotic nuclei.

[1] = tested on: isolated rat liver mitochondria; experiment: FACS analysis of ΔΨm and ROS in isolated mitochondria
Experimental: Measurement of ΔΨm and ROS Production by FACS Analysis. ΔΨm and ROS production were measured by FACScan (Becton Dickinson, San Jose, Calif.) analysis. Freshly isolated rat mitochondria were resuspended in respiration buffer (50-100 μg/ml) and then incubated for 15 min at 37° C. with 50 nM 3,3′-dihexyloxacarbocyanine iodide [DiOC6(3)],2 μM dihydroethidium (HE), or 5 μM 2′,7′-dichlorofluorescin diacetate (H2DCFDA; Molecular Probes Inc.) (Cathcart et al., Anal. Biochem., 134, 111-116 (1983); Carter et al., J. Leukoycte Biol, 55, 253-258 (1994); Zamzami et al., J. Exp. Med., 181 1661-1672 (1995)). Mitochondria were then treated with DCA (100 μM) or PhAsO (80 μM) for 5 min and analyzed by cytofluorometry. For the coincubation studies, mitochondria were preincubated with UDCA (500 μM) or HDCA (500 μM) prior to the addition of either DCA or PhAsO.

HuH-7 cells = experiment: TGF-β1-induced apoptosis, Hoechst staining, HuH-7 cells; format: cell-based, human
Experimental: Incubation of cells with ethanol, TGF-β1, anti-Fas antibody or okadaic acid. Freshly isolated rat hepatocytes were cultured for 3 h as described above and then incubated with William's E medium supplemented with either 0.5% ethanol, 50 μM UDCA, ethanol plus UDCA, or no addition (control) for 2 h and 4 h. HuH-7 cells were incubated with Dulbecco's medium supplemented with either 1 nM TGF-β1 (R & D Systems, Minneapolis, Minn.), 100 μM UDCA, TGF-β1+UDCA, or no addition (control) for 24 h, 48 h, and 72 h. Hep G2 cells were incubated with Dulbecco's medium supplemented with either 0.5 μg/ml of anti-Fas antibody CH-11 (Upstate Biotechnology, Inc., Lake Placid, N.Y.), 100 μM UDCA, CH-11+UDCA, or no addition for 48 h. Both HuH-7 cells and human osteogenic sarcoma Saos-2 cells were cultured in Dulbecco's medium supplemented with either 50 nM okadaic acid (Boehringer Mannheim Biochemicals, Inc, Indianapolis, Ind.), 100 μM UDCA, okadaic acid+UDCA, or no addition for 48 h. In all the combination groups, cells were pretreated with UDCA alone for 60 min prior to addition of ethanol, TGF-β1, anti-Fas antibody or okadaic acid.
HuH-7 cells were treated with 1 nM TGF-β1, 100 μM of either hyodeoxycholic acid, taurocholic acid, tauroursodeoxycholic acid (Sigma Chemical Co.) or glycoursodeoxycholic acid (Steraloids Inc., Wilton, N.H.), or a combination of TGF-β1 plus the individual bile acids for 72 h. HeLa and Cos-7 cells were incubated with 50 nM okadaic acid, 100 μM of either tauroursodeoxycholic acid or glycoursodeoxycholic acid, or a combination of okadaic acid plus the individual bile acids for 24 h. In the combination groups, cells were pretreated with the bile acid alone for 60 min prior to incuation with TGF-β1 or okadaic acid. In all studies, the medium was gently removed at the indicated times and scored for nonviable cells. The attached cells were fixed for morphologic evaluation of apoptosis.
Morphological evaluation of apoptosis. […] Fluorescence was visualized with a Zeiss standard fluorescence microscope (Carl Zeiss, Inc., Thornwood, N.Y.). Photographs were taken with Kodak Ektar-1000 film (Eastman Kodak Co.). Stained nuclei were scored by blind analysis and categorized according to the condensation and staining characteristics of chromatin. Normal nuclei were identified as noncondensed chromatin dispersed over the entire nucleus. Apoptotic nuclei were identified by condensed chromatin, contiguous to the nuclear membrane, as well as nuclear fragmentation of condensed chromatin. Three fields per dish of approximately 500 nuclei were counted; mean values are expressed as the percent of apoptotic nuclei.

[2] = 100 μM DCA alone or 500 μM UDCA alone
[3] = 1 nM TGF-β1, 100 μM bile acid, 72 h

C[C@H](CCC(=O)O)[C@H]1CC[C@H]2[C@@H]3CC[C@@H]4C[C@H](O)CC[C@]4(C)[C@H]3C[C@H](O)[C@]12C [DCA, deoxycholic acid] was tested, and the “percentage of apoptotic cells” value (rat primary hepatocytes) was 7%, the “other ROS (peroxides, H2DCFDA)” value ([1]; 100 μM DCA alone) was 21.7±3.5% and the superoxide anion production [1, 2] was 20.7±2.4%. For the same compound, the “percentage of low ΔΨm” value ([1]; 100 μM DCA alone, 5 min) was 16.0±1.8%.
In the case of C[C@H](CCC(=O)O)[C@H]1CC[C@H]2[C@@H]3[C@@H](O)C[C@@H]4C[C@H](O)CC[C@]4(C)[C@H]3CC[C@]12C [UDCA, ursodeoxycholic acid], the “decrease of TGF-β1 apoptosis” value (HuH-7 cells; 1 nM TGF-β1, 100 μM bile acid, 24 h) is reported as “approximately 49%”, the “decrease of TGF-β1 apoptosis” value (HuH-7 cells; 1 nM TGF-β1, 100 μM bile acid, 48 h) is reported as roughly 44% and the “decrease of TGF-β1 apoptosis” value (HuH-7 cells; [3]) is reported as roughly 45%. For the same compound, the “Inhibition % Apoptosis” value (HuH-7 cells; inducer TGF-β1, HuH-7, inhibition by UDCA) was 44.2 ± 11.2%, the inhibition at 100 µM (rat primary hepatocytes; Rattus norvegicus, Hepatocyte, 100 μM UDCA with each of the apoptosis-inducing agents) was greater than 80% and the “reduction of ROS production of peroxides” value ([1]; 80 μM PhAsO + 500 μM UDCA) was 55%. The “reduction of ROS production of superoxide anions” value ([1]; 80 μM PhAsO + 500 μM UDCA) was 100%, the “reduction of ΔΨm disruption” value ([1]; 80 μM PhAsO + 500 μM UDCA versus PhAsO alone) was “approximately 65%” and the “other ROS (peroxides, H2DCFDA)” value ([1]; 100 μM DCA + 500 μM UDCA) was 14.7±1.4%. The “percentage of low ΔΨm” value ([1]; 100 μM DCA + 500 μM UDCA) was 10.3±0.7%, the superoxide anion production ([1]; 100 μM DCA + 500 μM UDCA) was 15.9±1.5% and the superoxide anion production [1, 2] was 11.8±2.8%.
In the case of C[C@H](CCC(=O)O)[C@H]1CC[C@H]2[C@@H]3C[C@H](O)[C@@H]4C[C@H](O)CC[C@]4(C)[C@H]3CC[C@]12C [hyodeoxycholic acid], the “inhibition of TGF-β1-induced apoptosis” value (HuH-7 cells; [3]) is reported as “did not; also recorded: neither hyodeoxycholic acid nor taurocholic acid showed inhibition”, the “effect on DCA-mediated changes in ΔΨm and ROS production” value ([1]; 100 μM DCA, 500 μM bile acid pretreatment, listed as HDCA) is reported as “did not prevent DCA-mediated changes; also recorded: does not significantly inhibit” and the “ΔΨm and ROS with HDCA alone” value ([1]; 500 μM HDCA alone) is reported as “no changes were observed”.
C=C1[C@@H](O)[C@@H]2O[C@]3(CC[C@H](/C=C/[C@@H](C)[C@@H]4CC(C)=C[C@@]5(O[C@H](C[C@@](C)(O)C(=O)O)CC[C@H]5O)O4)O3)CC[C@H]2O[C@@H]1[C@@H](O)C[C@H](C)[C@H]1O[C@@]2(CCCCO2)CC[C@H]1C [okadaic acid] was tested, and the “percentage of apoptotic cells” value (rat primary hepatocytes) was 75%.
With “TGF-β1: transforming growth factor β1, nonmembrane damaging inducer of apoptosis” the induction of apoptosis (HuH-7 cells; 1 nM TGF-β1) was “significant apoptosis” and the “percentage of apoptotic cells” value (rat primary hepatocytes) was 30%.
